Data from patent US20230364243A1, “CANCER-SELECTIVE TARGET DEGRADATION BY TARGETING GROUP CAGED PROTACS” (Beth Israel Deaconess Medical Center, Inc., priority 2021, published 2023).
pIC50: −log10 of the molar value.

Legend:
[1] = biological target: T1, NPM-ALK fusion protein (Homo sapiens, UniProt Q9UM73); assay: Western blot analysis of NPM-ALK fusion protein in SU-DHL-1 cells; type: cell-based; settings: for effect in degrading NPM-ALK fusion protein after pretreatment with folic acid: free folic acid pretreatment; for DC50: read-out: DC50 of NPM-ALK fusion protein degradation
T1 construct: endogenous in cells; host or cells: SU-DHL-1; the other entry of the earlier key: NPM1 (P06748, Nucleophosmin)
T1 sequence (Q9UM73 with tags, fused parts or gaps): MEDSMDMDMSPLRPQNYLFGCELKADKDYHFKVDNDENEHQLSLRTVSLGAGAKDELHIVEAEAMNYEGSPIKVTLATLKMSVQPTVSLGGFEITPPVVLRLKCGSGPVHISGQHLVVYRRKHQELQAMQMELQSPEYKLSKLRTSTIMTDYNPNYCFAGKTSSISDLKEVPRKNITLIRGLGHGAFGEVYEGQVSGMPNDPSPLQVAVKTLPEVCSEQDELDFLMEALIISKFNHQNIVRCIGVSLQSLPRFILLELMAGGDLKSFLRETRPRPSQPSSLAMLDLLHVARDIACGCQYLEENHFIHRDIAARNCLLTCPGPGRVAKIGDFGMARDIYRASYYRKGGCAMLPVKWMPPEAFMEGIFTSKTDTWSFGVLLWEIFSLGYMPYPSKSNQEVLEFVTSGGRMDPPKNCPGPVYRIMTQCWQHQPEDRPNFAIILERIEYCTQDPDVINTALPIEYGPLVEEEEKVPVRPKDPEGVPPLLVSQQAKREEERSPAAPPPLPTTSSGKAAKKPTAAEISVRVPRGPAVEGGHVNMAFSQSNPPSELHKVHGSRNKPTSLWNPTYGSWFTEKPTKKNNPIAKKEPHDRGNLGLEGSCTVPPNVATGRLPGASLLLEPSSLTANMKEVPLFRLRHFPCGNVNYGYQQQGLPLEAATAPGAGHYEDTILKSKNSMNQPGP
Description: (§1) For folic acid competitive degradation assay, cells were pretreated with folic acid (F8758, Sigma-Aldrich, 2.5 mM) for 2 hours, followed by the treatment of indicated PROTACs for indicated time. For endocytosis inhibition, cells were pretreated with Pitostop 2 (SML1169, Sigma-Aldrich, 1-30 μM) or MCD (21633, Cayman, 0.03-1 mM) for 12 hours, followed by co-treatment with indicated PROTACs for another 12 hours. For proteasome or E3 ligase inhibition assay, cells were treated with MG132 (BML-P11020, ENZO Life Sciences, 10 μM) or MLN4924 (S7109, SelleckChem, 1 μM) another 12 hours. For GSH-stimulating assay, cells were treated with S-Acetyl-GSH (29624, Cayman, 1 mM) with indicated PROTACs for 12 or 72 hours.
(§2) Cells were lysed in EBC buffer (50 mM Tris pH 7.5, 120 mM NaCl, 0.5% NP-40) supplemented with protease inhibitors (Pierce) and phosphatase inhibitors (phosphatase inhibitor cocktail set I and II, Calbiochem). The protein concentrations of the lysates were measured using the Bio-Rad protein assay reagent on a Beckman Coulter DU-800 spectrophotometer. The lysates were then resolved by SDS-PAGE and immunoblotted with indicated antibodies.
(§3) Cells were lysed in EBC buffer (50 mM Tris-HCl pH 7.5, 120 mM NaCl and 0.5% NP-40) supplemented with protease inhibitors (Pierce) and phosphatase inhibitors (phosphatase inhibitor cocktailset I and II, Calbiochem). The protein concentrations of the lysates were measured using the Bio-Rad protein assay reagent on a Beckman Coulter DU-800 spectrophotometer. The lysates (40 μg protein) werethen resolved by 10% SDS-olyacrylamide gel electrophoresis (PAGE) at 130 V for 80 min and immunoblotted with indicated antibodies at 4° C. overnight, washed four times with Tris-buffered saline with 0.1% Tween-20 (TBST) buffer, incubated with secondary antibody for 1 hour at room temperature, and then washed 4 times with TBST.

[2] = Release of active compound after incubation with DTT in PBS at 37° C., HPLC analysis; type: physicochemical; settings: 37° C. in PBS; for release of MS4048 after DTT treatment: DTT (10 equiv), HPLC
Description: FA-S2-POMA and the negative control FA-C2-POMA were incubated with dithiothreitol (DTT) under physiological conditions (37° C. in phosphate buffered saline (PBS)) and then subjected to HPLC analysis.
The effects of these folate caged PROTACS on ALK fusion protein degradation was assessed in cancer cells. FA-S2-MS4048 and FA-C2-MS4048 were incubated with DTT at 37° C. in PBS. […] Furthermore, compared to FA-S2-POMA (FIG. 11B), the release rate of FA-S2-MS4048 is slower.

[3] = biological target: T2, EML4-ALK fusion protein (Homo sapiens, UniProt Q9UM73); assay: Western blot analysis of EML4-ALK fusion protein in NCI-H2228 and NCI-H3122 NSCLC cells; type: cell-based
T2 construct: endogenous in cells; host or cells: NCI-H2228, NCI-H3122; the other entry of the earlier key: EML4 (Q9HC35, Echinoderm microtubule-associated protein-like 4)
T2 sequence (Q9UM73 1058-1620 limits assumed): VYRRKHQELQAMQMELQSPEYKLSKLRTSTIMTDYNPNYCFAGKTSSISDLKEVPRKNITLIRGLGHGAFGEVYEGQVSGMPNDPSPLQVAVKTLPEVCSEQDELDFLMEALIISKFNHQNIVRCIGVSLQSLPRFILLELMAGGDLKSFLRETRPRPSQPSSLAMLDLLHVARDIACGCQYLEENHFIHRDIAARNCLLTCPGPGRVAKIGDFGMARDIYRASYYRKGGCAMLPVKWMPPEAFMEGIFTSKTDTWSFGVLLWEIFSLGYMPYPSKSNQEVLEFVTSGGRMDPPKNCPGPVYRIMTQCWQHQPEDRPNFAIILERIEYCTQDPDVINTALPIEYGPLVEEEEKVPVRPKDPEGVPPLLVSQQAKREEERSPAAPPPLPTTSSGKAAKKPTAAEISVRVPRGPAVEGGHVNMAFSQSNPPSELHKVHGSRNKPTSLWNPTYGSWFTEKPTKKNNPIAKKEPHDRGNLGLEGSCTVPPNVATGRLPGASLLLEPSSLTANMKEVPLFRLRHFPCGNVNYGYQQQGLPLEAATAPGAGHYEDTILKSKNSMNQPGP
Description: as §1, §2, §3

[4] = test system: SU-DHL-1 cells; assay: Cell viability of SU-DHL-1 cells (CCK-8); type: cell-based; settings: 72 hours; for pIC50: Homo sapiens, read-out: IC50 cell viability / proliferation
Description: as §1
Cell in 96-well plates were treated with drugs as indicated, and then incubated with 10 μl/well of CCK-8 (cell counting Kit-8) solution at for 1-2 hours, followed by the measurement of optical density at 450 nm.

[5] = test system: MEK1 and MEK2; assay: Western blot analysis of MEK1 and MEK2 levels in HT29 and SK-MEL-28 cells; type: cell-based; settings: HT29 and SK-MEL-28 cells, dose- and time-dependent
Description: as §1, §2, §3

Compound: Cc1cc(Nc2ncc(Cl)c(Nc3ccccc3S(=O)(=O)C(C)C)n2)c(OC(C)C)cc1C1CCN(C(=O)CCCC(=O)N[C@H](C(=O)N2C[C@H](NC(=O)CCCCn3cc(CNC(=O)CC[C@H](NC(=O)c4ccc(NCc5cnc6nc(N)[nH]c(=O)c6n5)cc4)C(=O)O)nn3)C[C@H]2C(=O)N[C@@H](C)c2ccc(-c3scnc3C)cc2)C(C)(C)C)CC1 [Folate-MS99N, N^2-(4-(((2-amino-4-oxo-3,4-dihydropteridin-6-yl)methyl)amino)benzoyl)-N^5-((1-(5-(((3R,5S)-1-((S)-2-(5-(4-(4-((5-chloro-4-((2-(isopropylsulfonyl)phenyl)amino)pyrimidin-2-yl)amino)-5-isopropoxy-2-methylphenyl)piperidin-1-yl)-5-oxopentanamido)-3,3-dimethylbutanoyl)-5-(((S)-1-(4-(4-methylthiazol-5-yl)phenyl)ethyl)carbamoyl)pyrrolidin-3-yl)amino)-5-oxopentyl)-1H-1,2,3-triazol-4-yl)methyl)-L-glutamine]
- degrading NPM-ALK ([1]; SU-DHL-1 cells, even at 3 μM): incapable of degrading NPM-ALK

Compound: Cc1cc(Nc2ncc(Cl)c(Nc3ccccc3S(=O)(=O)C(C)C)n2)c(OC(C)C)cc1C1CCN(CC(=O)NCCNc2cccc3c2C(=O)N(C2CCC(=O)N(C(=O)OCCSSCCn4cc(CNC(=O)CC[C@H](NC(=O)c5ccc(NCc6cnc7nc(N)[nH]c(=O)c7n6)cc5)C(=O)O)nn4)C2=O)C3=O)CC1 (stereo partly drawn) [FA-S2-MS4048, N^2-(4-(((2-amino-4-oxo-3,4-dihydropteridin-6-yl)methyl)amino)benzoyl)-N^5-((1-(2-((2-((3-(4-((2-(2-(4-(4-((5-chloro-4-((2-(isopropylsulfonyl)phenyl)amino)pyrimidin-2-yl)amino)-5-isopropoxy-2-methylphenyl)piperidin-1-yl)acetamido)ethyl)amino)-1,3-dioxoisoindolin-2-yl)-2,6-dioxopiperidine-1-carbonyl)oxy)ethyl)disulfanyl)ethyl)-1H-1,2,3-triazol-4-yl)methyl)-L-glutamine]
- release of MS4048 after DTT treatment [2]: efficient release of MS4048
- release rate compared to FA-S2-POMA ([2]; DTT): slower
- degradation of EML4-ALK fusion proteins [3]: effectively degraded
- degradation of EML4-ALK with MG132 or MLN4924 ([3]; MG132 or MLN4924): blocked the degradation
- potency in inhibiting proliferation after pretreatment with folic acid ([4]; 2.5 mM folic acid): significantly reduced potency
- pIC50 [4]: 6.33
- potency in inhibiting proliferation after pretreatment with S-Ac-GSH ([4]; S-Ac-GSH 1 mM): significantly increased potency
- potency in degrading the ALK proteins compared with FA-C2-MS4048 ([1]; ALK fusion proteins): more potent than FA-C2-MS4048
- potency in degrading the proteins of interest compared with MS4048 ([1]; ALK fusion proteins): less potent than its uncaged analog, MS4048
- degradation of NPM-ALK fusion protein ([1]; SU-DHL-1 cells): effectively degraded
- time at which significant degradation was observed ([1]; SU-DHL-1 cells, 3 μM): ≤ 1 h
- effect on degrading NPM-ALK after depletion of endogenous CRBN E3 ligase ([1]; SU-DHL-1 cells, 3 μM, 12 hours): significantly reduced the effect
- effect on degrading NPM-ALK after knockdown of FOLR1 via shRNAs ([1]; SU-DHL-1 cells, 3 μM, 12 hours): completely abolished the effect
- degradation of NPM-ALK with MG132 or MLN4924 ([1]; SU-DHL-1 cells, 10 μM MG132 or 1 μM MLN4924): blocked the degradation of NPM-ALK
- potency in degrading NPM-ALK after pretreatment with S-Ac-GSH ([1]; SU-DHL-1 cells, S-Ac-GSH 1 mM): significant increase in potency
- effect in degrading NPM-ALK fusion protein after pretreatment with folic acid ([1]; SU-DHL-1 cells): blocked the effect

Compound: Cc1cc(Nc2ncc(Cl)c(Nc3ccccc3S(=O)(=O)C(C)C)n2)c(OC(C)C)cc1C1CCN(C(=O)CCCC(=O)N[C@H](C(=O)N2C[C@H](OC(=O)CCCCn3cc(CNC(=O)CC[C@H](NC(=O)c4ccc(NCc5cnc6nc(N)[nH]c(=O)c6n5)cc4)C(=O)O)nn3)C[C@H]2C(=O)N[C@@H](C)c2ccc(-c3scnc3C)cc2)C(C)(C)C)CC1 [Folate-MS99, N^2-(4-(((2-amino-4-oxo-3,4-dihydropteridin-6-yl)methyl)amino)benzoyl)-N^5-((1-(5-(((3R,5S)-1-((S)-2-(5-(4-(4-((5-chloro-4-((2-(isopropylsulfonyl)phenyl)amino)pyrimidin-2-yl)amino)-5-isopropoxy-2-methylphenyl)piperidin-1-yl)-5-oxopentanamido)-3,3-dimethylbutanoyl)-5-(((S)-1-(4-(4-methylthiazol-5-yl)phenyl)ethyl)carbamoyl)pyrrolidin-3-yl)oxy)-5-oxopentyl)-1H-1,2,3-triazol-4-yl)methyl)-L-glutamine]
- degradation of EML4-ALK fusion proteins [3]: efficiently degraded the EML4-ALK fusion proteins
- effect in degrading EML4-ALK fusion protein after pretreatment with free folic acid ([3]; free folic acid pretreatment): antagonized the effect
- pIC50 [4]: 6.70
- degradation of NPM-ALK fusion protein ([1]; SU-DHL-1 cells): degraded NPM-ALK fusion protein efficiently
- DC50 ([1]; SU-DHL-1 cells, 12 hours): 100 nM
- effect in degrading NPM-ALK fusion protein after pretreatment with folic acid ([1]; SU-DHL-1 cells): antagonized the effect

Compound: Cc1cc(Nc2ncc(Cl)c(Nc3ccccc3S(=O)(=O)C(C)C)n2)c(OC(C)C)cc1C1CCN(CC(=O)NCCNc2cccc3c2C(=O)N(C2CCC(=O)N(C(=O)OCCCCCCn4cc(CNC(=O)CC[C@H](NC(=O)c5ccc(NCc6cnc7nc(N)[nH]c(=O)c7n6)cc5)C(=O)O)nn4)C2=O)C3=O)CC1 (stereo partly drawn) [FA-C2-MS4048, N^2-(4-(((2-amino-4-oxo-3,4-dihydropteridin-6-yl)methyl)amino)benzoyl)-N^5-((1-(6-((3-(4-((2-(2-(4-(4-((5-chloro-4-((2-(isopropylsulfonyl)phenyl)amino)pyrimidin-2-yl)amino)-5-isopropoxy-2-methylphenyl)piperidin-1-yl)acetamido)ethyl)amino)-1,3-dioxoisoindolin-2-yl)-2,6-dioxopiperidine-1-carbonyl)oxy)hexyl)-1H-1,2,3-triazol-4-yl)methyl)-L-glutamine]
- release of MS4048 after DTT treatment [2]: no release of MS4048
- pIC50 [4]: 5.02
- degradation of NPM-ALK fusion protein ([1]; SU-DHL-1 cells): had some degradation effect

Compound: Cc1cc(Nc2ncc(Cl)c(Nc3ccccc3S(=O)(=O)C(C)C)n2)c(OC(C)C)cc1C1CCN(C(=O)CCCC(=O)N[C@H](C(=O)N2C[C@H](O)C[C@H]2C(=O)N[C@@H](C)c2ccc(-c3scnc3C)cc2)C(C)(C)C)CC1 [MS99, (2S,4R)-1-((S)-2-(5-(4-(4-((5-chloro-4-((2-(isopropylsulfonyl)phenyl)amino)pyrimidin-2-yl)amino)-5-isopropoxy-2-methylphenyl)piperidin-1-yl)-5-oxopentanamido)-3,3-dimethylbutanoyl)-4-hydroxy-N-((S)-1-(4-(4-methylthiazol-5-yl)phenyl)ethyl)pyrrolidine-2-carboxamide]
- pIC50 [4]: 7.04
- degradation of NPM-ALK fusion protein ([1]; SU-DHL-1 cells): degraded NPM-ALK fusion protein efficiently
- DC50 ([1]; SU-DHL-1 cells, 12 hours): 30 nM

Compound: Cc1ncsc1-c1ccc([C@H](C)NC(=O)[C@@H]2C[C@@H](NC(=O)CCCCn3cc(CNC(=O)CC[C@H](NC(=O)c4ccc(NCc5cnc6nc(N)[nH]c(=O)c6n5)cc4)C(=O)O)nn3)CN2C(=O)[C@@H](NC(=O)CCCCCCCCCCNCCCONC(=O)c2ccc(F)c(F)c2Nc2ccc(I)cc2F)C(C)(C)C)cc1 [Folate-MS432N, N^2-(4-(((2-amino-4-oxo-3,4-dihydropteridin-6-yl)methyl)amino)benzoyl)-N^5-((1-(5-(((3R,5S)-1-((S)-2-(11-((3-((3,4-difluoro-2-((2-fluoro-4-iodophenyl)amino)benzamido)oxy)propyl)amino)undecanamido)-3,3-dimethylbutanoyl)-5-(((S)-1-(4-(4-methylthiazol-5-yl)phenyl)ethyl)carbamoyl)pyrrolidin-3-yl)amino)-5-oxopentyl)-1H-1,2,3-triazol-4-yl)methyl)-L-glutamine]
- degradation of MEK1 and MEK2 [5]: could not do so
